Here are results for one compound from article PMC11325555, “Interaction of Bisphenol A and Its Analogs with Estrogen and Androgen Receptor from Atlantic Cod (Gadus morhua)” (Environmental Science & Technology, 2024).

In this data set the test system is COS-7 cells. The data set is described as follows: Cytotoxicity toward COS-7 cells (resazurin and CFDA-AM assays). Conditions: antiandrogenic reporter assay conditions (with testosterone); highest concentration used; 24 h. The source says: The cytotoxicity of the test compounds toward COS-7 cells was monitored by measuring the metabolic activity and membrane integrity through the conversion of resazurin and 5-carboxyfluorescein diacetate acetoxymethyl ester (CFDA-AM), respectively, as described previously by Pérez-Albaladejo et al.[54] […]
used as a negative control.
Figure S2. Assessing metabolic activity (resazurin) and cell membrane integrity (CFDA-AM) in COS-7 cells after BP exposures. COS-7 cells were exposed to three concentrations of each BP, as well as three concentrations […]
exposed at 37 °C and 5 % CO2 for 24 hours. Cytotoxicity is indicated by a reduction in the fluorescent signal (denoted as % Cell survival) relative to the solvent control (DMSO, dotted line) adjusted to 100 %. A reduction in cell viability exceeding 20 % is generally regarded as cytotoxic (indicated with a red dotted line) (ISO, I. 2009.
10993–5: 2009 Biological evaluation of medical devices—part 5: tests for in vitro cytotoxicity. International Organization for Standardization, Geneva.).
(1 picture or pasted object on this page, not shown here)
(In general: The colour change of resazurin is a common sign of viable cells or microbes.)

Take `CC(C)(c1ccc(OCC2CO2)cc1)c1ccc(OCC2CO2)cc1` (stereo not shown) [BADGE]: the “cytotoxic concentration in COS-7 cells” value was found to be 50 µM.
